Laboratory results reported in patent publication US20260240832A1, “USE OF NITROXOLINE COMPOUND IN ENHANCING EFFECT OF ANTIBACTERIAL AGENT” (Jiangsu Yahong Meditech Co., Ltd., priority 2022, published 2026).

Experiments:
Assay type in all cases: cell-based
[1] = tested on: carbapenem-resistant Acinetobacter baumannii; assay: Chessboard microbroth dilution MIC/FIC, compound A in combination with meropenem; conditions: for MIC: Acinetobacter baumannii, read-out: Meropenem MIC alone; for Meropenem MIC in combination: with compound A
Excerpt: This experiment is designed to determine the minimum inhibitory concentration (MIC) of compound A in combination with meropenem against carbapenem-resistant Acinetobacter baumannii and to calculate the fractional inhibitory concentration (FIC) index.
(§1) Test bacteria: 10 strains of carbapenem-resistant Acinetobacter baumannii are clinically isolated strains, and are provided by Shanghai Junji Medical Laboratory Co., Ltd.
According to the recommendation of the Clinical and Laboratory Standards Institute (CLSI), the microbroth dilution method designed by the chessboard method was used to determine the minimum inhibitory concentration (MIC) of compound A in combination with meropenem against the above strains, and the fractional inhibitory concentration (FIC) index was calculated.
Compound A was dissolved in dimethyl sulfoxide to obtain a stock solution I with a concentration of 51200 mg/L. The stock solution I was subjected to 1:1 gradient dilution with dimethyl sulfoxide to obtain a dilution solution with a concentration range of 51200 to 25 mg/L. The corresponding concentrations were added to sterile water for 100-fold dilution to obtain working solution I with a concentration range of 512 to 0.25 mg/L.
Meropenem was dissolved in sterile water to obtain a stock solution with a concentration of 5120 mg/L. The […] stock solution was subjected to 1:1 gradient dilution with sterile water to obtain a working solution II with a concentration range of 512 to 0.25 mg/L.
(§2) According to the method in Example 1, a drug sensitive plate was prepared with working solution I and working solution II, and the specific process will not be repeated here.
(§3) (2) The culture medium of the bacterial solution: Cation-Adjusted Mueller-Hinton Broth (CAMHB), a product of BBL, USA, batch number 9015952.
(§4) (3) Formulation method of bacterial solution: According to the direct colony suspension method, the test bacteria cultured overnight were prepared into a 0.5 McFarland turbidity tube using physiological saline. Then, the resulting solution was dilute 100 times with the above culture medium. 100 μL of the resulting bacterial solution was mixed well with the solution (100 μL) in each well of the drug sensitivity plate, and the final inoculation amount was 10^5 CFU/mL.
(§5) (4) Culture conditions: Culturing at 35±2° C. for 20 hours in air.
(§6) (1) The experimental results were determined according to the standard of CLSI 2020 M100 30th edition.
(§7) wherein: FIC≤0.5 indicates synergistic effect; 0.5<FIC≤1.0 indicates additive effect; 1<FIC≤2.0 indicates irrelevant effect; and FIC>2 indicates antagonistic effect.

[2] = tested on: drug-resistant Escherichia coli 1864; assay: MIC of antibiotics against drug-resistant Escherichia coli II (resistance profile of the strain); conditions: drug-resistant Escherichia coli 1864; read-out: MIC
Excerpt: 1 strain of drug-resistant Escherichia coli II, namely drug-resistant Escherichia coli 1864, is provided by the School of Pharmacy of Fudan University. This strain is resistant to fluoroquinolone antibiotics (such as levofloxacin), non-fluoroquinolone antibiotics (such as nalidixic acid, nemofloxacin), aminoglycoside antibiotics (such as gentamicin), glycopeptide antibiotics (such as vancomycin) and carbapenem antibiotics (such as meropenem).

[3] = tested on: carbapenem-resistant Acinetobacter baumannii; assay: Chessboard microbroth dilution MIC/FIC, compound 1 in combination with polymyxin; conditions: for MIC: Acinetobacter baumannii, read-out: Compound 1 MIC alone; for Compound 1 MIC in combination: with polymyxin
Excerpt: This experiment is designed to determine the minimum inhibitory concentration (MIC) of compound 1 in combination with polymyxin against carbapenem-resistant Acinetobacter baumannii and to calculate the fractional inhibitory concentration (FIC) index.
as §1
According to the recommendation of the Clinical and Laboratory Standards Institute (CLSI), the microbroth dilution method designed by the chessboard method was used to determine the minimum inhibitory concentration (MIC) of compound 1 in combination with polymyxin against the above strains, and the fractional inhibitory concentration (FIC) index was calculated.
Compound 1 was dissolved in dimethyl sulfoxide to obtain a stock solution I with a concentration of 51200 mg/L. The stock solution I was subjected to 1:1 gradient dilution with dimethyl sulfoxide to obtain a dilution solution with a concentration range of 51200 to 25 mg/L. The corresponding concentrations were added to sterile water for 100-fold dilution to obtain working solution I with a concentration range of 512 to 0.25 mg/L.
Polymyxin was dissolved in sterile water to obtain a stock solution with a concentration of 5120 mg/L. The polymyxin stock solution was subjected to 1:1 gradient dilution with sterile water to obtain a working solution II with a concentration range of 512 to 0.25 mg/L.
as §2, §3, §4, §5, §6, §7

[4] = strain 18-J11-001, compound 1 + polymyxin
[5] = strain 18-J11-002, compound 1 + polymyxin
[6] = strain 18-J11-034, compound 1 + polymyxin
[7] = strain 18-J11-097, compound 1 + polymyxin
[8] = strain 18-J15-030, compound 1 + polymyxin
[9] = strain 18-J21-095, compound 1 + polymyxin
[10] = strain 18-J24-015, compound 1 + polymyxin
[11] = strain 18-J24-033, compound 1 + polymyxin
[12] = strain 18-J40-021, compound 1 + polymyxin
[13] = strain 18-J51-052, compound 1 + polymyxin

`C[C@@H](O)[C@H]1C(=O)N2C(C(=O)O)=C(S[C@@H]3CN[C@H](C(=O)N(C)C)C3)[C@H](C)[C@H]12` [Meropenem, reference compound] showed an MIC ([1]; strain No. 1) of 128 mg/L, an MIC ([1]; strain No. 2) of 128 mg/L and an MIC ([1]; strain No. 3) of 128 mg/L. For the same molecule, the MIC ([1]; strain No. 4) was 128 mg/L, the MIC ([1]; strain No. 5) was 128 mg/L and the MIC ([1]; strain No. 6) was 128 mg/L. The MIC ([1]; strain No. 7) was 64 mg/L, the MIC ([1]; strain No. 8) was 64 mg/L and the MIC ([1]; strain No. 9) was 64 mg/L. The MIC ([1]; strain No. 10) was 128 mg/L, the “Meropenem MIC in combination” value ([1]; strain No. 1) was 16 mg/L and the “Meropenem MIC in combination” value ([1]; strain No. 2) was 16 mg/L. For the same molecule, the “Meropenem MIC in combination” value ([1]; strain No. 3) was 16 mg/L, the “Meropenem MIC in combination” value ([1]; strain No. 4) was 16 mg/L and the “Meropenem MIC in combination” value ([1]; strain No. 5) was 16 mg/L. The “Meropenem MIC in combination” value ([1]; strain No. 6) was 16 mg/L, the “Meropenem MIC in combination” value ([1]; strain No. 7) was 16 mg/L and the “Meropenem MIC in combination” value ([1]; strain No. 8) was 8 mg/L. The “Meropenem MIC in combination” value ([1]; strain No. 9) was 8 mg/L, the “Meropenem MIC in combination” value ([1]; strain No. 10) was 16 mg/L and the MIC [2] was over 64 mg/L.
For `O=[N+]([O-])c1c(Br)c(Cl)c2cccnc2c1O` [Compound 1, 6-bromo-5-chloro-7-nitroquinolin-8-ol], the MIC ([3]; strain 18-J11-001) was 8 mg/L, the MIC ([3]; strain 18-J11-002) was 4 mg/L and the MIC ([3]; strain 18-J11-034) was 4 mg/L. For the same molecule, the MIC ([3]; strain 18-J11-097) was 4 mg/L, the MIC ([3]; strain 18-J15-030) was 16 mg/L and the MIC ([3]; strain 18-J21-095) was 8 mg/L. The MIC ([3]; strain 18-J24-015) was 8 mg/L, the MIC ([3]; strain 18-J24-033) was 4 mg/L and the MIC ([3]; strain 18-J40-021) was 8 mg/L. The MIC ([3]; strain 18-J51-052) was 4 mg/L, the “change of the MIC of polymyxin by the combination” value ([3]; compound 1 + polymyxin) was “significantly reduce” and the “effect of the combination (summary of Table 2)” value ([3]; compound 1 + polymyxin) was “synergistic effect (FIC≤0.5 indicates synergistic effect)”. For the same molecule, the FIC index [3, 4] was 0.303, the Results [3, 4] was “Synergistic” and the “Compound 1 MIC in combination” value ([3]; strain 18-J11-001) was 0.5 mg/L. The FIC index [3, 5] was 0.740, the Results [3, 5] was “Additive” and the “Compound 1 MIC in combination” value ([3]; strain 18-J11-002) was 2 mg/L. The FIC index [3, 6] was 0.500, the Results [3, 6] was “Synergistic” and the “Compound 1 MIC in combination” value ([3]; strain 18-J11-034) was 1 mg/L. The FIC index [3, 7] was 0.365, the Results [3, 7] was “Synergistic” and the “Compound 1 MIC in combination” value ([3]; strain 18-J11-097) was 0.5 mg/L. The FIC index [3, 8] was 0.313, the Results [3, 8] was “Synergistic” and the “Compound 1 MIC in combination” value ([3]; strain 18-J15-030) was 1 mg/L. For the same molecule, the FIC index [3, 9] was 0.740, the Results [3, 9] was “Additive” and the “Compound 1 MIC in combination” value ([3]; strain 18-J21-095) was 4 mg/L. The FIC index [3, 10] was 0.375, the Results [3, 10] was “Synergistic” and the “Compound 1 MIC in combination” value ([3]; strain 18-J24-015) was 1 mg/L. The FIC index [3, 11] was 0.500, the Results [3, 11] was “Synergistic” and the “Compound 1 MIC in combination” value ([3]; strain 18-J24-033) was 1 mg/L. The FIC index [3, 12] was 0.250, the Results [3, 12] was “Synergistic” and the “Compound 1 MIC in combination” value ([3]; strain 18-J40-021) was 1 mg/L. For the same molecule, the FIC index [3, 13] was 0.750, the Results [3, 13] was “Additive” and the “Compound 1 MIC in combination” value ([3]; strain 18-J51-052) was 2 mg/L.
